What was measured:
VEGFR-2 = VEGFR-2 (Homo sapiens, UniProt P35968); test: VEGFR-2 inhibition rate test (kinase assay kit, colorimetric ELISA); conditions: concentration not given
Rat aortic ring = test: Rat Aortic Ring Assay; format: cell-based; conditions: for Rat Aortic Ring Assay (10 ug/ml), result in words: observed on the sixth day; for inhibition at 10 µg/mL: Rattus norvegicus, 10 ug/ml, compared with blank control, sixth day
From the text: Rat Aortic Ring Assay • 1) 6 week old SD […] (Sprague Dawley) were selected for the experiments. Cleaned abdominal skin with 75% ethanol to disinfect, and then anesthetized the mice with ether, • 2) Carefully removed the abdominal aortas and transferred the aortas to normal saline. Excessive vascular tissues were carefully removed with scissors. • 3) The aortas were rinsed with normal saline until no blood stain remained. • 4) Sectioned the aortas into one millimeter depth arterial slices with ophthalmological scissors. • 5) Add 50 μL pre-thawed Matrigel to each well of the pre-cooled 96 well cell culture plates, and embedded the ring-shaped mouse aortas in collagen gel. • 6) Incubated for 60 minutes at 37° C. to solidificate the gel. • 7) Added DMEM culture solution containing 10% FBS, along with different concentrations of the selected compounds into the wells and cultured in the incubator. Every compound was repeated in no less than 3 wells. • 8) Replaced with the fresh medium and changed the medicine once on the third day. • 9) Took out the pates on the sixth day, and observed the vascular growth with Microscope (OLYMPUS, DP70, Japan) and took photographs(×100). Randomly chose 3 arterial rings to photograph and calculated the area covered by micro-vascular with Image Pro Plus software. The inhibition rate is calculated as:
[formula] • Evaluation criteria: ⋆inhibition rate[…]; ⋆⋆inhibition rate 60-90%; ⋆⋆⋆inhibition rate>90%.

[1] = tested on: chorioallantoic membrane vessels; test: Activity test by chick chorioallantoic membrane method; format: in vivo; conditions: 5 uL medicine on cellulose membrane, chick embryo, 2 days
Method: After the shell membrane became wet, tore it open with ophthalmological tweezers so to expose the chorioallantoic membrane. • 6) Added 5 uL of selected medicine to a 0.5×0.5 cm cellulose membrane sterilized by high pressure, then set the membrane on the part of the chorioallantoic membrane with fewer vessels • 7) Closed the window, and put the embryos back into the hatch box to hatch for 2 days. • 8) Opened the transparent tape, and then opened the mixed cellulose membrane lightly with a tweezers. Measured the avascular area and took photographs.

[2] = tested on: Microvascular Endothelial Cells (MVEC); test: MTT growth inhibition of MVEC; format: cell-based; conditions: Endothelial cell, 96 h, 4 days culture with drug, read-out: IG50 on inhibiting growth of MVEC
Method: In Vitro Anti-Tumor Activity Test
Put cell suspension into centrifugal tubes with a pipette under sterile conditions, then the cell suspension was centrifuged for 3 minutes at 1300 rpm. Discarded the supernatant lightly and added fresh culture medium. Mixed the cells by pipetting, then transferred the cells into culture flasks, and put them into the CO2 incubator. Changed the culture medium once after 24 hours.
Human prostate cancer cells (DU145, PC-3) were cultured in a medium containing RPMI1640 basic medium supplemented with 10% heat-inactivated FBS, 100 IU/mL penicillin, 100 μg/mL streptomycin and 1 mmol/L L-glutamine. Human breast carcinoma cells (T47D, MDA-MB231) were cultured in a medium containing RPM11640 basic medium supplemented with 10% heat-inactivated FBS, 5 μg/mL insulin, 100 IU/mL penicillin, 100 μg/mL streptomycin and 1 mmol/L L-glutamine. Human breast carcinoma cells (MCF-7) were cultured in a medium containing DMEM basic medium supplemented with 10% heat-inactivated FBS, 5 μg/mL insulin, 100 IU/mL penicillin, 100 μg/mL streptomycin and […]. Murine Lewis lung cancer cells (LL/2), murine melanoma cells (B16FD) and Microvascular Endothelial Cells (MVEC) were cultured in a medium containing DMEM basic medium supplemented with 10% heat-inactivated FBS, 4.5 g/L glucose, 1.5 g/L NaHCO3, 100 IU/mL penicillin, 100 μg/mL streptomycin and 4 mmol/L L-glutamine. All these cell lines were incubated at 37° C. biochemical incubator with 5% CO2 saturated humidity.
After resuscitation, the cells were passed for 2-3 generations till they became stable, then they were used for the experiments. Each passage was based on the standard that all cells were spread over the bottoms of culture flasks.
Cells were digested off from the bottoms of culture flasks with trypsin (0.25%). The cell dissociation buffer was transferred into centrifuge tubes, added medium to stop the digestion, and centrifuged for 3 minutes at 1300 rpm. Discarded the supernatant lightly and added fresh culture medium (5 mL). Mixed the cells by pipetting, then added 10 μL of the cell suspension into the cell counting plate, and adjusted the cell concentration to 2×10^4 cells/mL. Added 100 μL of the cell suspension to all wells on the 96 well plates, except A1 well as the blank control. Put the plates into the biochemical incubator for 24 hours and to make sure the cells grew along the walls.
The drugs were dissolved in 80 mmol/L DMSO first, and then diluted the drugs with ethanol to 8 mmol/L. The solution was further diluted with the culture medium to different concentrations as 160 μmol/L, 120 μmol/L, 80 μmol/L, 40 μmol/L, 20 μmol/L and 10 μmol/L. Added 100 μL of the drug solution to each well on the 96 well plates. Therefore, the final concentrations of the drugs that were added to the cells were 80 μmol/L, 40 μmol/L, 20 μmol/L, 10 μmol/L and 5 μmol/L, and each concentration were repeated in three parallel wells. Put the culture plates into the biochemical incubator to culture continuously for 4 days.
Added 50 μL MTT liquids (2 mg/mL) into each well, put the culture plates into the biochemical incubator for 4 h, discarded MTT liquids (TCC), added 200 μL DMSO, then oscillated for 10 minutes on the magnetic oscillator to make sure that the survived cells and the reaction product of MTT were fully dissolved. Detected and recorded the absorbance (OD) values of each well at the wavelength of 570 nm using the microplate reader. The OD values of cells without tested drugs were used as control. The cell growth inhibition rates under each drug concentration were calculated by the following formula. […] Inhibition rate of growth(%)=(1−The absorbance(OD)of cells with tested drugs/The absorbance(OD)of the blank control group)×100%
The absorbance (OD) of cells with tested drugs: OD value is measured with the test drugs.
The absorbance (OD) of the blank control group: OD value is measured without the test drugs. […]

Chain of VEGFR-2 (P35968 20-1356): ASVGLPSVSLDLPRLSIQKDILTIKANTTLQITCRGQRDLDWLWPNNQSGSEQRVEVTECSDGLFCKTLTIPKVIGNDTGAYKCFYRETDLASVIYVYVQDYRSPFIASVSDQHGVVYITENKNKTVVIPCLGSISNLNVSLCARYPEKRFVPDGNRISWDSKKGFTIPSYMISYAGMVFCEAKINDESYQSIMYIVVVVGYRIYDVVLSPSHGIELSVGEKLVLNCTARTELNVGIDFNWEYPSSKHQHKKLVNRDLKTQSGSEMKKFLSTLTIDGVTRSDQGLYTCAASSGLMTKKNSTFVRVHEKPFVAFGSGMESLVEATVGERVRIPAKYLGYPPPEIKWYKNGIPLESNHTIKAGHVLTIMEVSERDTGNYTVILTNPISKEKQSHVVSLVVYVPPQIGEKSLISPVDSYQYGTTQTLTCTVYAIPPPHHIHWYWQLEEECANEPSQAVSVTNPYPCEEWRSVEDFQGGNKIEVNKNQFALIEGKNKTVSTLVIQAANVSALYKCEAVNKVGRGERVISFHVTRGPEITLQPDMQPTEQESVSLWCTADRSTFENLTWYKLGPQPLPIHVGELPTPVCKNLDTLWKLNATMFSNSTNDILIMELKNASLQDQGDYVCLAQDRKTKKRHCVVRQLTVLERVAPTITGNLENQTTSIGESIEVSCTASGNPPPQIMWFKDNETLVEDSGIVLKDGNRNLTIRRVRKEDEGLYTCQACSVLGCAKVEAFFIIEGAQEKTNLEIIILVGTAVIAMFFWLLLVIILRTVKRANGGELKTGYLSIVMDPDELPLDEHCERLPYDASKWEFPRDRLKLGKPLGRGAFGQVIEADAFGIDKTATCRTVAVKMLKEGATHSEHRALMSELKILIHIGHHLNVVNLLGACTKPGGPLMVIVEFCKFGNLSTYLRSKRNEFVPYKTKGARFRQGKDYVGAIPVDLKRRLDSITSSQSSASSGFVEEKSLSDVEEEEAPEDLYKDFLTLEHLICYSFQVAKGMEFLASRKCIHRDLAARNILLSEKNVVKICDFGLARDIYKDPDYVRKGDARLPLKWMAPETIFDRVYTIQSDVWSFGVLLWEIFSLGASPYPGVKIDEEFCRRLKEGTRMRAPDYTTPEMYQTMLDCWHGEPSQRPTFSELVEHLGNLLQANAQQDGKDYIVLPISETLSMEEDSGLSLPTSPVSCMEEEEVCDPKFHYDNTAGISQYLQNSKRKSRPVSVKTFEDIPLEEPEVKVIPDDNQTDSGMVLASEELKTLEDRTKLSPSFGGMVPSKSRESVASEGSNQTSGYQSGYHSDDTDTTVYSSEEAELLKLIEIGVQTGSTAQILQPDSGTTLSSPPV

**Q.** `FC(F)(F)Oc1cccc(Nc2nnnc3ccccc23)c1` [Example 7, 4-(3-trifluoromethoxyanilino)-benzo[d][1,2,3]triazine] was tested. Which “Kinase inhibition rate (VEGFR-2)” value (VEGFR-2) did it give?
**A.** Its value is −17.64.

**Q.** What about the “Rat Aortic Ring Assay (10 ug/ml), result in words” value (“Rat Aortic Ring Assay (10 ug/ml)” for short) (Rat aortic ring) of the same compound?
**A.** Its value is “No significant inhibition”.

**Q.** And the “The inhibitory effect on the growth of chorioallantoic membrane vessels” value (shortened to “The inhibitory effect on the growth”) [1]?
**A.** The value was “Two samples exhibit significant inhibition ring”.

**Q.** Which results are given for `Clc1cccc(Nc2nnnc3ccccc23)c1` [Example 4, 4-(3-chloroanilino)-benzo[d][1,2,3]triazine]?
**A.** Kinase inhibition rate (VEGFR-2) (VEGFR-2): 12.83; The inhibitory effect on the growth of chorioallantoic membrane vessels [1]: The vascular growth is abundant

**Q.** For `COc1cc2c(Nc3ccccc3)nnnc2cc1OCCCCl` [Example 61, 6-methoxy-7-chloropropoxy-4-anilino-benzo[d][1,2,3]triazine], which “Kinase inhibition rate (VEGFR-2)” value (VEGFR-2) is on record?
**A.** The value was 3.58.

**Q.** What about the “Rat Aortic Ring Assay (10 ug/ml)” value (Rat aortic ring) of the same compound?
**A.** The value was “No significant inhibition”.

**Q.** What about the “The inhibitory effect on the growth” value [1] of the same compound?
**A.** The value was “One sample exhibits inhibition ring at the zone covered by paper”.

**Q.** With `CCOc1cc2nnnc(Nc3cccc(C(F)(F)F)c3)c2cc1OC` [Example 34, 6-methoxy-7-ethoxy-4-(3-trifluoromethylanilino)-benzo[d][1,2,3]triazine] as the compound, how does the inhibition at 10 µg/mL (Rat aortic ring) read?
**A.** Its inhibition at 10 µg/mL is > 80%.

**Q.** What about the “The inhibitory effect on the growth” value [1] of the same compound?
**A.** The value was “One of the two samples exhibits significant inhibition zone, and the other”.

**Q.** What does the source list for `COc1cc2c(Nc3ccccc3F)nnnc2cc1OCCCCl` [Example 74, 6-methoxy-7-chloropropoxy-4-(2-fluoroanilino)-benzo[d][1,2,3]triazine]?
**A.** Kinase inhibition rate (VEGFR-2) (VEGFR-2): 0.26; Rat Aortic Ring Assay (10 ug/ml), result in words (Rat aortic ring): Vessel density was small, cells were elongated and cell; The inhibitory effect on the growth of chorioallantoic membrane vessels [1]: The vessels become rare and are fractured at the zone covered by paper.

**Q.** How did the “Kinase inhibition rate (VEGFR-2)” value (VEGFR-2) turn out when `FC(F)(F)Oc1ccc(Nc2nnnc3ccccc23)cc1` [Example 6, 4-(4-trifluoromethoxyanilino)-benzo[d][1,2,3]triazine] was run?
**A.** Its value is −33.42.

**Q.** What about the “Rat Aortic Ring Assay (10 ug/ml)” value (Rat aortic ring) of the same compound?
**A.** The value was “No significant inhibition”.

**Q.** What about the “The inhibitory effect on the growth” value [1] of the same compound?
**A.** The value was “One of the two samples exhibits significant fracture,”.

**Q.** Which results are given for `CCCCOc1cc2nnnc(Nc3ccc(OC(F)(F)F)cc3)c2cc1OC` [Example 20, 6-methoxy-7-n-butoxy-4-(4-trifluoromethoxyanilino)-benzo[d][1,2,3]triazine]?
**A.** Rat Aortic Ring Assay (10 ug/ml), result in words (Rat aortic ring): Cell proliferation and migration were not significantly affected,; The inhibitory effect on the growth of chorioallantoic membrane vessels [1]: One of the two samples exhibits significant inhibition, and the other

**Q.** For `CCCCCOc1cc2nnnc(Nc3ccc(C(F)(F)F)cc3)c2cc1OC` [Example 51, 6-methoxy-7-pentyloxy-4-(4-trifluoromethylanilino)-benzo[d][1,2,3]triazine], which “Kinase inhibition rate (VEGFR-2)” value (VEGFR-2) is on record?
**A.** The value was −18.71.

**Q.** What about the “Rat Aortic Ring Assay (10 ug/ml)” value (Rat aortic ring) of the same compound?
**A.** The value was “No significant inhibition”.

**Q.** What about the “The inhibitory effect on the growth” value [1] of the same compound?
**A.** The value was “The samples exhibit significant inhibition ring”.

**Q.** `Fc1ccccc1Nc1nnnc2ccccc12` [Example 3, 4-(2-fluoroanilino)-benzo[d][1,2,3]triazine] was tested. Which “Kinase inhibition rate (VEGFR-2)” value (VEGFR-2) did it give?
**A.** The value was 19.78.

**Q.** What about the “Rat Aortic Ring Assay (10 ug/ml)” value (Rat aortic ring) of the same compound?
**A.** The value was “No significant inhibition”.

**Q.** What about the “The inhibitory effect on the growth” value [1] of the same compound?
**A.** Its value is “Significant inhibition in two of three samples,”.

**Q.** Which “Kinase inhibition rate (VEGFR-2)” value (VEGFR-2) does the source give for `COc1cc2c(Nc3cccc(Br)c3)nnnc2cc1OCCCCl` [Example 75, 6-methoxy-7-chloropropoxy-4-(3-bromoanilino)-benzo[d][1,2,3]triazine] here?
**A.** The value was 0.80.

**Q.** What about the “Rat Aortic Ring Assay (10 ug/ml)” value (Rat aortic ring) of the same compound?
**A.** Its value is “No significant inhibition”.

**Q.** And the “The inhibitory effect on the growth” value [1]?
**A.** Its value is “Smaller inhibition ring appears at the zone covered by paper”.

**Q.** Which “Kinase inhibition rate (VEGFR-2)” value (VEGFR-2) does the source give for `COc1cc2c(Nc3ccc(C(F)(F)F)cc3)nnnc2cc1OCCCCl` [Example 68, 6-methoxy-7-chloropropoxy-4-(4-trifluoromethylanilino)-benzo[d][1,2,3]triazine] here?
**A.** The value was 1.51.

**Q.** And the “Rat Aortic Ring Assay (10 ug/ml)” value (Rat aortic ring)?
**A.** The value was “Vascular growth is significantly inhibited”.

**Q.** What about the “The inhibitory effect on the growth” value [1] of the same compound?
**A.** Its value is “Two samples exhibit inhibition at the zone covered by paper”.

**Q.** Which “Rat Aortic Ring Assay (10 ug/ml)” value (Rat aortic ring) does the source give for `CCCCCOc1cc2nnnc(Nc3ccc(F)cc3)c2cc1OC` [Example 59, 6-methoxy-7-pentyloxy-4-(4-fluoroanilino)-benzo[d][1,2,3]triazine] here?
**A.** Its value is “No significant inhibition”.

**Q.** And the “The inhibitory effect on the growth” value [1]?
**A.** Its value is “The vessels become fewer, but not thinner. The medicine precipitates out”.

**Q.** For `CCOc1cc2nnnc(Nc3cccc(Cl)c3)c2cc1OC` [Example 38, 6-methoxy-7-ethoxy-4-(3-chloroanilino)-benzo[d][1,2,3]triazine], which “Rat Aortic Ring Assay (10 ug/ml)” value (Rat aortic ring) is on record?
**A.** The value was “No significant inhibition”.

**Q.** What about the “The inhibitory effect on the growth” value [1] of the same compound?
**A.** The value was “One embryo is dead”.

**Q.** What does the source list for `COc1cc2c(Nc3ccc(OC(F)(F)F)cc3)nnnc2cc1OCCCCl` [Example 70, 6-methoxy-7-chloropropoxy-4-(4-trifluoromethoxyanilino)-benzo[d][1,2,3]triazine]?
**A.** Kinase inhibition rate (VEGFR-2) (VEGFR-2): 16.65; inhibition at 10 µg/mL (Rat aortic ring): > 50%; IC50 [2]: 23.2 µM

**Q.** With `CCCCOc1cc2nnnc(Nc3cc(Cl)cc(Cl)c3)c2cc1OC` [Example 13, 6-methoxy-7-n-butoxy-4-(3,5-dichloroanilino)-benzo[d][1,2,3]triazine] as the compound, how does the “Kinase inhibition rate (VEGFR-2)” value (VEGFR-2) read?
**A.** The value was −9.89.

**Q.** And the “Rat Aortic Ring Assay (10 ug/ml)” value (Rat aortic ring)?
**A.** Its value is “No significant inhibition”.

**Q.** And the IC50 [2]?
**A.** The IC50 was 3.17 µM.

**Q.** With `CCOc1cc2nnnc(Nc3ccccc3F)c2cc1OC` [Example 41, 6-methoxy-7-ethoxy-4-(2-fluoroanilino)-benzo[d][1,2,3]triazine] as the compound, how does the “Rat Aortic Ring Assay (10 ug/ml)” value (Rat aortic ring) read?
**A.** Its value is “No significant inhibition”.

**Q.** And the “The inhibitory effect on the growth” value [1]?
**A.** The value was “One embryo is dead, and the other exhibits no significant inhibition”.

**Q.** For `CCOc1cc2nnnc(Nc3cccc(Br)c3)c2cc1OC` [Example 42, 6-methoxy-7-ethoxy-4-(3-bromoanilino)-benzo[d][1,2,3]triazine], which inhibition at 10 µg/mL (Rat aortic ring) is on record?
**A.** The inhibition at 10 µg/mL was ~40%.

**Q.** What about the “The inhibitory effect on the growth” value [1] of the same compound?
**A.** Its value is “One of the two samples exhibits inhibition”.

Source: patent publication US8349835B2, “Aromatic ring fused triazine derivatives and uses thereof” (Shenyang Pharmaceutical University, priority 2008, dated 2013)
